According to paper PMC11172375, “Preclinical Evaluation of Biodistribution and Toxicity of [^211At]PSMA-5 in Mice and Primates for the Targeted Alpha Therapy against Prostate Cancer” (International Journal of Molecular Sciences, 2024):

Tests used:
[1] = Hematological examination in monkeys; type: in vivo, cynomolgus monkeys; conditions: for %Lymph / Hb / Ht / Platelet / RBC / WBC: monkeys, 9 MBq/kg i.v.
Experimental: (§1) [^211At]PSMA-5 was administered intravenously to 25 mice, and its biodistribution was evaluated. For the toxicity study, three doses of [^211At]PSMA-5 (5, 12, and 35 MBq/kg, single dose) or saline were intravenously administered to 10 mice/group for the main evaluation point on day 1, and 5-mice/group for recovery evaluation on day 14, adhering to the ICH M3 (R2) guidelines. The dosage was determined based on our previous study using [^211At]NaAt. The monkeys were monitored for 24 h post-administration of [^211At]PSMA-5 (9 MBq/kg).
(§2) Monkeys were anesthetized with intramuscular administration of ketamine (10 mg/kg) and xylazine (0.5 mg/kg) with isoflurane inhalation anesthesia. Planar and Single Photon Emission Computed Tomography (SPECT) imaging was performed in monkeys using a γ-camera system (E-cam, Siemens, Erlangen, Germany) immediately after administration to 1 h and at 3 and 24 h post-administration of [^211At]PSMA-5 (9 MBq/kg), targeting the X-rays emitted from the daughter nuclide ^211Po (energy window: 79 keV ± 20%). Subsequent image analysis was performed by setting the regions of interest using Osirix MD software (Version 13, Pixmeo SARL, Bernex, Switzerland) and PMOD software (Version 3.903, PMOD Technologies, Fällanden, Switzerland). Blood samples were obtained pre-administration and at 1, 3, and 24 h post-administration, followed by euthanasia via bloodletting at 24 h.
(§3) A blood cell counter was used for the measurements (CB-1010; ARKRAY, Inc., Kyoto, Japan). Red blood cell count (RBC), hemoglobin concentration (Hb), hematocrit (Ht), white blood cell count (WBC), platelet count (platelet), lymphocytes (%Lymph), monocytes (%Mon), and granulocytes (%Gra) were calculated. Plasma was analyzed using a dry clinical chemistry analyzer (Spotchem D-00 QR D-02; ARKRAY, Inc., Kyoto, Japan). The levels of aspartate aminotransferase (AST), alanine aminotransferase (ALT), gamma-glutamyl transpeptidase (γ-GTP), lactate dehydrogenase (LDH), alkaline phosphatase (ALP), creatine kinase (CK), amylase (AMY), total bilirubin (TBIL), creatinine (CRE), urea nitrogen (BUN), glucose (GLU), total protein (TP), albumin (ALB), total cholesterol (TCHO), triglyceride (TG), and electrolytes (Na, K, and Cl) were measured.

[2] = Blood chemistry analysis in monkeys; type: in vivo, cynomolgus monkeys; conditions: for ALB / ALP / ALT / AMY / AST / BUN / CK / CRE / K / LDH / Na / TBIL / TCHO / TG / TP / γ-GTP / GLU: monkeys, 9 MBq/kg i.v.
Experimental: as §1, §2, §3

[3] = Necropsy and histological evaluation in mice; type: in vivo, ICR mice
Experimental: as §1
The brain, salivary gland, thyroid, heart, lungs, liver, kidney, adrenal gland, pancreas, spleen, thymus, stomach, small intestine, large intestine, bladder, prostate, and testes were collected on days 1 or 14 in mice and at 24 h in monkeys. Additionally, the pituitary gland, tongue, trachea, esophagus, mesenteric lymph nodes, epididymis, seminal vesicles, skin, mammary glands, spinal cord, bone, bone marrow (femur), eyeball, and optic nerve were collected from the mice. After fixation, paraffin sections were prepared and stained with hematoxylin and eosin (HE). All the specimens were evaluated by an expert in toxic pathology using an integrated fluorescence microscope (BZ-X810; Keyence Corporation. Osaka, Japan). In mice, the brain, salivary glands, heart, lungs, liver, gallbladder, spleen, kidneys, and testes were weighed according to ICH S4 guideline.

[4] = TLC metabolite analysis of blood samples, mice; type: in vivo; conditions: plasma
Experimental: as §2
The blood samples were centrifuged at 3000 rpm for 5 min, and the resulting plasma was mixed with twice the volume of ethanol, then agitated vigorously. The supernatants were analyzed by thin-layer chromatography (TLC).

[5] = design: method as in PMID 35553387; conditions: LNCaP xenograft mice, 1MBq (53MBq/kg), 3 and 6 weeks after administration; cited from earlier work
[6] = 24 hrs, might be affected by hemolysis
[7] = mice, 12 MBq/kg, regarded as spontaneous lesion

O=C(O)CC[C@H](NC(=O)N[C@@H](CCCCNC(=O)[C@@H](Cc1ccc2ccccc2c1)NC(=O)c1ccc(CNC(=O)[C@@H](CCC(=O)O)NC(=O)[C@@H](CCC(=O)O)NC(=O)Cc2ccc([211At])cc2)cc1)C(=O)O)C(=O)O [[^211At]PSMA-5]
leukopenia (mainly lymphopenia) ([1]; cynomolgus monkeys, 9 MBq/kg, 24 h after administration): mild but significant leukopenia | %Lymph ([1]; 1 h): 44.0 ± 16.0% | Hb ([1]; 1 h): 10.3 ± 1.4 g/dL | Ht ([1]; 1 h): 32.9 ± 4.8% | Platelet ([1]; 1 h): 263.7 ± 33.0 10^3 cell/µL | RBC ([1]; 1 h): 4.30 ± 0.30 10^6 cell/µL | WBC ([1]; 1 h): 10.1 ± 0.7 10^3 cell/µL | %Lymph ([1]; 3 h): 52.0 ± 4.5% | Hb ([1]; 3 h): 11.2 ± 0.8 g/dL | Ht ([1]; 3 h): 35.4 ± 2.5% | Platelet ([1]; 3 h): 306.8 ± 41.2 10^3 cell/µL | RBC ([1]; 3 h): 4.70 ± 0.00 10^6 cell/µL | WBC ([1]; 3 h): 6.7 ± 1.4 10^3 cell/µL | %Lymph ([1]; 24 h): 23.7 ± 1.1% | Hb ([1]; 24 h): 9.9 ± 0.5 g/dL | Ht ([1]; 24 h): 31.8 ± 1.5% | Platelet ([1]; 24 h): 269.7 ± 60.8 10^3 cell/µL | RBC ([1]; 24 h): 4.20 ± 0.10 10^6 cell/µL | WBC ([1]; 24 h): 5.3 ± 0.8 10^3 cell/µL | LDH levels ([2]; cynomolgus monkeys, 9 MBq/kg): elevated in both monkeys | renal function or electrolyte levels ([2]; cynomolgus monkeys, 9 MBq/kg): No significant changes | monkeys with a mild increase in amylase ([2]; cynomolgus monkeys, 9 MBq/kg, 24 h post-administration): 1/2 | ALB ([2]; 1 hr): 2.5 ± 0.4 g/dL | ALP ([2]; 1 hr): 835 ± 173.6 IU/L | ALT ([2]; 1 hr): 11.3 ± 1.8 IU/L | AMY ([2]; 1 hr): 291 ± 62.2 IU/L | AST ([2]; 1 hr): 13.3 ± 4.6 IU/L | BUN ([2]; 1 hr): 24.8 ± 2.5 mg/dL | CK ([2]; 1 hr): 496 ± 321.4 IU/L | CRE ([2]; 1 hr): 0.5 ± 0.2 mg/dL | K ([2]; 1 hr): 4.3 ± 0.2 mEq/L | LDH ([2]; 1 hr): 231 ± 27.9 IU/L | Na ([2]; 1 hr): 140 ± 2.8 mEq/L | TBIL ([2]; 1 hr): 0.3 ± 0.1 mg/dL | TCHO ([2]; 1 hr): 84 ± 24 mg/dL | TG ([2]; 1 hr): 25.5 ± 0.7 mg/dL | TP ([2]; 1 hr): 3.6 ± 0.4 g/dL | γ-GTP ([2]; 1 hr): 61.8 ± 8.1 IU/L | GLU ([2]; 1 hr, suggests contamination from the infusion fluid): 309 ± 177 mg/dL | ALB ([2]; 3 hrs): 2.5 ± 0.1 g/dL | ALP ([2]; 3 hrs): 890 ± 47.4 IU/L | ALT ([2]; 3 hrs): 12 ± 2.8 IU/L | AMY ([2]; 3 hrs): 342 ± 38.2 IU/L | BUN ([2]; 3 hrs): 27 ± 1.4 mg/dL | CK ([2]; 3 hrs): 522 ± 101.8 IU/L | CRE ([2]; 3 hrs): 0.75 ± 0.21 mg/dL | GLU ([2]; 3 hrs): 62 ± 56.6 mg/dL | K ([2]; 3 hrs): 4.9 ± 0.4 mEq/L | LDH ([2]; 3 hrs): 255 ± 4.9 IU/L | Na ([2]; 3 hrs): 143 ± 0 mEq/L | TBIL ([2]; 3 hrs): 0.3 ± 0.0 mg/dL | TCHO ([2]; 3 hrs): 91 ± 17 mg/dL | TG ([2]; 3 hrs): 28 ± 4.2 mg/dL | TP ([2]; 3 hrs): 3.7 ± 0.1 g/dL | γ-GTP ([2]; 3 hrs): 66.5 ± 19.1 IU/L | ALB ([2]; 24 hrs): 2.7 ± 0 g/dL | ALP ([2]; 24 hrs): 768 ± 34.4 IU/L | ALT ([2]; 24 hrs): 24.8 ± 21 IU/L | AMY ([2]; 24 hrs): 565 ± 197 IU/L | BUN ([2]; 24 hrs): 35.7 ± 2.4 mg/dL | CK ([2]; 24 hrs): 713 ± 293.9 IU/L | CRE ([2]; 24 hrs): 0.7 ± 0.0 mg/dL | GLU ([2]; 24 hrs): 77.7 ± 1.4 mg/dL | K ([2]; 24 hrs): 4 ± 0.2 mEq/L | Na ([2]; 24 hrs): 146 ± 3.1 mEq/L | TBIL ([2]; 24 hrs): 0.7 ± 0.3 mg/dL | TCHO ([2]; 24 hrs): 90.7 ± 0.5 mg/dL | TG ([2]; 24 hrs): 28.7 ± 4.7 mg/dL | TP ([2]; 24 hrs): 4.2 ± 0.4 g/dL | γ-GTP ([2]; 24 hrs): 65 ± 17.9 IU/L | AST [2, 6]: 38.7 ± 19.3 IU/L | LDH [2, 6]: 471 ± 30.2 IU/L | gross findings during necropsy ([3]; expert evaluation): no gross abnormalities beyond spontaneous lesions | histological changes in the thyroid, testes, and kidneys compared to the control group ([3]; mice, 5, 12 and 35 MBq/kg): no significant changes | single-cell necrosis/apoptosis of crypt epithelial cells in pyloric glands of the stomach, duodenum, jejunum ([3]; mice, 5-35 MBq/kg, day 1): dose-dependent increase | tingible body macrophages in white pulp of the spleen and lymphoid follicles of mesenteric lymph nodes ([3]; mice, 5-35 MBq/kg, day 1): dose-dependent increase | incidence of increased single-cell necrosis/apoptosis in striatal epithelial and serous cells of the salivary gland ([3]; mice, 12 MBq/kg, day 1): 1/10 | incidence of atrophy of the seminal vesicles [3, 7]: 1/10 | incidence of intraperitoneal mass [3, 7]: 1/10 | incidence of cortical lymphopenia in the thymus ([3]; mice, 35 MBq/kg, day 1): 2/10 | incidence of decrease in bone marrow cells ([3]; mice, 35 MBq/kg, day 1): 9/10 | incidence of increased single-cell necrosis/apoptosis in striatal epithelial and serous cells of the salivary gland ([3]; mice, 35 MBq/kg, day 1): 7/10 | incidence of mild localized hepatocellular necrosis in the liver ([3]; mice, 35 MBq/kg, considered a spontaneously occurring lesion): 1/10 | degenerative changes in salivary glands, stomach, duodenum, jejunum, spleen, mesenteric lymph nodes, bone marrow, thymus ([3]; mice, day 14 post-administration): not observed | metabolites in blood samples (TLC) [4]: no metabolites were detected | kidney histology [5]: regenerated tubules were observed
